# Laboratory results reported in patent publication US20150250786A1, “PYRIMIDINE HYDROXY AMIDE COMPOUNDS AS PROTEIN DEACETYLASE INHIBITORS AND METHODS OF USE THEREOF” (THE TRUSTEES OF THE UNIVERSITY OF PENNSYLVANIA, priority 2012, published 2015).
# “And” between values parts separate entries of the source, which are not always exact repeats. Equal entries are not always repeated. Where two headings read alike, the source gives them in different places.
# Legend:
# [1] = tested on: α-tubulin acetylation in mouse whole brain lysates; assay: α-tubulin acetylation in whole brain lysates after single i.p. administration; type: in vivo; conditions: compound 73 5 mg/kg, compound 101 50 mg/kg, tubastatin A 10 mg/kg, 30 min, 1 h, 4 h
# [2] = Body weight gain during chronic treatment; type: in vivo, mouse; conditions: 4 weeks of treatment
# [3] = tested on: mice; assay: NIH test; type: in vivo, mouse; conditions: acute, 50 mg/kg
# [4] = tested on: RN46A-B14 serotonergic cell line; assay: Histone H3K9 acetylation in RN46A-B14 cells (Western blot); type: cell-based, rat; conditions: 2.5 μM, 4 hours
# [5] = tested on: mice; assay: Marble-burying task; type: in vivo, mouse; conditions: acute administration
# [6] = tested on: RN46A-B14 serotonergic cell line; assay: α-tubulin K40 acetylation in RN46A-B14 cells (Western blot); type: cell-based, rat; conditions: 4 hours; TSA 0.6 μM, others 2.5 μM
# Procedure: In FIG. 3, it was observed that subchronic treatment, consisting of 5 treatments at 48, 28, 24, 4 and ½ hours before sacrifice, led to greater increase in tubulin acetylation than did chronic treatment of 1 injection/day for 21 days. For cell culture, RN46B cells were treated for with 0.25, 2.5 or 25 μM drug in DMSO for 1, 4 or 24 hours as indicated. Tukey post-hoc analysis: * P=0.01 to 0.05, ** P=0.001-0.01, ***P<0.001 when compared with vehicle treatment.
# (§1) Results are shown as percent change normalized to the vehicle treatment condition. The horizontal hard line depicts average and the dotted lines depict SEM of the vehicle treated wells. Representative Western blot images are presented. […] Representative Western blot images are presented. […] The drugs (5 mg/kg) were administered subchronically (at 24 h, 4 h and 30 min prior to sacrifice) to HDAC6 KO and WT littermates. The changes in tubulin acetylation were measured in tissue lysates from cortex (ctx), hippocampus (Hpc), dorsal Raphe nucleus (DRN) and cerebellum (cb). The tubulin acetylation levels in drug-treated mice are expressed as percent change of the vehicle-treated mice of the corresponding genotype. The horizontal lines depict the average tubulin acetylation±SEM in the vehicle treated mice. The representative Western blot images show the changes induced by each drug treatment in the hippocampus (left column) and dorsal raphe (right column) of WT and HDAC6 KO mice.
# In contrast to the class I isoforms HDAC2 and 3, which are expressed highly and ubiquitously in the mouse brain, HDAC6 mRNA expression appears to be restricted to a small number of brain areas, with highest signal observed in DRN (FIG. 13f). […] No changes in total α-tubulin expression were detected (FIG. 14a).
# [7] = tested on: histone H3 lysine 9 acetylation; assay: Histone H3K9 acetylation in vivo (Western blot, ChIP); set-up: species or system mouse
# [8] = tested on: mice; assay: Open-field test; type: in vivo, mouse
# [9] = Pharmacokinetics and brain bio-distribution in mice; type: in vivo, mouse; conditions: mouse; for Kp: brain, calculated over 2 hours
# Procedure: […] Plasma samples were taken from all mice upon sacrifice. Brain samples were taken from the mice sacrificed at 5 and 15 minutes and 1 and 4 hours. The brain samples were homogenized in PBS and centrifuged at 14000 rpm for 5 minutes. The supernatant from the brain homogenate and the plasma samples were injected onto a LC/MS/MS for analysis. The compound level in the samples was determined by a standard curve in the appropriate matrix. Pharmacokinetic parameters were determined from the raw data by WinNonLin.
# [10] = tested on: NIH Swiss mice; C57BL/6J HDAC6 WT and KO mice; assay: Tail suspension test (TST); type: in vivo, mouse; conditions: for immobility in TST: NIH Swiss mice
# [11] = tested on: α-tubulin K40 acetylation in cortex, hippocampus, DRN, cerebellum; assay: α-tubulin acetylation in brain regions after subchronic administration, WT and HDAC6 KO mice; type: in vivo, mouse
# Procedure: as §1, with “The drugs (5 mg/kg) were administered subchronically (at 24 h, 4 h and 30 min prior to sacrifice) to HDAC6 KO and WT littermates.” left out
# [12] = tested on: mice; assay: Chronic social defeat (CSD) and social interaction test; type: in vivo, mouse; conditions: compound 73 5 mg/kg
# Procedure: Additionally, when combined with a dose of Citalopram with lower activity, these compounds seemed to have an additive effect (See FIG. 10). The dose of Citalopram chosen for this experiment was based on literature stating 2 mg/kg should be subactive, but this dose was found still showing an effect. Mice then underwent chronic social defeat stress, in which the mice are exposed to an aggressive resident mouse for 5 minutes daily for 10 days and are then tested on the 11th day in the social interaction test. Mice treated with vehicle for 20 total days, beginning 10 days before the defeat, show reduced time spent in the interaction zone when a target mouse is present when compared with control mice. […] The percent of mice found to be resilient, defined as spending more time in the interaction zone than the lowest control (i.e. ˜52 s), is higher in HDAC6 inhibitor groups. All behavior testing done using NIH Swiss mice, age 6-10 weeks. Tukey post-hoc analysis: * P=0.01 to 0.05, ** P=0.001-0.01, ***P<0.001 compared with vehicle treated mice.
# The effects were observed 30 minutes after acute 50 mg/kg i.p. injection, but not for the lower dose (5 mg/kg). Combination of subactive doses of the HDAC6 selective inhibitors (5 mg/kg) and citalopram (0.5 mg/kg) produced robust potentiation of anti-immobility activity (n=8-29 per condition). […] No difference was observed between HDAC6 WT and KO when treated with the vehicle (n=6-15 per condition). FIG. 16c is a timeline showing treatment period, social defeat and social interaction (SI) testing.
# A pro-resilient phenotype in the mouse CSD paradigm after serotonin-selective KO of HDAC6 was previously reported (Espallergues et al, 2012). Whether a chronic pharmacological inhibition of HDAC6 can replicate that phenotype is studied. […] On day 21, 24 h after the last injection, the mice were tested in the social interaction test. […] Significant effects were also observed when data was evaluated in terms of proportion of mice reaching criterion for resiliency.
# [13] = tested on: mice; assay: Elevated plus maze (EPM); type: in vivo, mouse; conditions: acute administration
compound,measurement,setting,value
"O=C(NO)c1cnc(NC2(c3ccccc3)CC2)nc1 [Compound 73, N-hydroxy-2-((1-phenylcyclopropyl)amino)pyrimidine-5-carboxamide]",α-tubulin acetylation in whole brain lysates,[1],significant increases
same,body weight gain,[2],no significant effect
same,latency to eat in the NIH test,[3],significantly decreased
same,change in histone H3K9 acetylation,[4],no significant change
same,number of marbles buried,[5],significantly reduced
same,acetylated (lysine 40) fraction of α-tubulin,[6],increases
same,"histone H3K9 acetylation enrichment at promoter DNA (cFOS, BDNF promoter 4), ChIP","[7]; hippocampus, repeated i.p., compound 73 5 mg/kg, sodium butyrate 1.2 g/kg",no concurrent changes
same,acetylation of histone 3 at lysine 9 in Western blot,[7]; in vivo treatment,did not significantly alter
same,exploratory activity in novel open-field arena,"[8]; acute, compounds 73, 101 50 mg/kg, tubastatin A 10 mg/kg",hyperlocomotor effects
same,distance in the center of the open field,"[8]; mouse, in vivo",602±96 beam breaks
same,Kp,"[9]; C57BL/6J, intraperitoneal, read-out: AUCBrain/AUCplasma",1.22
same,concentration at 30 min,"[9]; C57BL/6J, plasma, intraperitoneal, 5 mg/kg, read-out: 30 min plasma concentration (ng/ml) - 5 mg/kg",89 ng/mL
same,concentration at 30 min,"[9]; C57BL/6J, plasma, intraperitoneal, 50 mg/kg, read-out: 30 min plasma concentration (ng/ml) - 50 mg/kg",515 ng/mL
same,Cmax,"[9]; C57BL/6J, plasma, ip, 5 mg/kg, mice, acute i.p. dosing, read-out: Cmax",494 ng/mL
same,half-life,"[9]; C57BL/6J, plasma, ip, mice, acute i.p. dosing, read-out: T½ plasma (converted)",12 min
same,Kp,"[9]; intraperitoneal, read-out: AUCBrain/AUCplasma ratio",> 1
same,concentration at 30 min,"[9]; plasma, intraperitoneal, acute 50 mg/kg injection, read-out: plasma level at t=30 minutes",515 ng/mL and 1.9 µM
same,concentration at 2 h,"[9]; plasma, intraperitoneal, read-out: plasma concentration after two hours",< 10 ng/mL
same,half-life,"[9]; plasma, intraperitoneal, read-out: plasmatic half-life",12 min
same,immobility in TST,[10]; 5 mg/kg,No significant effect
same,activity in TST two hours after the injection,"[10]; 20 mg/kg citalopram, 50 mg/kg compound 73",still had significant activity
same,immobility in TST,"[10]; 50 mg/kg i.p., 30 minutes",Significant reductions
same,anti-immobility effect in HDAC6 KO mice,"[10]; C57BL/6J background, versus WT littermates",no significant effect
same,anti-immobility effects in C57BL/6J WT mice,"[10]; mouse, in vivo",still significant
same,α-tubulin acetylation over baseline levels,"[11]; HDAC6 KO mice, identical treatment regimens",did not produce increases
same,"α-tubulin acetylation in cortex, hippocampus, DRN, cerebellum","[11]; wild-type mice, 24 h, 4 h, 30 m before sacrifice, compound 73 5 mg/kg, compound 101 50 mg/kg",significant increases
same,"time in the interaction zone versus vehicle, defeated mice","[12]; 20 days treatment, fluoxetine 20 mg/kg, compound 101 50 mg/kg",significantly higher
same,percentage of resilient mice,"[12]; after CSD, fluoxetine 20 mg/kg, compound 101 50 mg/kg",81%
same,time spent in the corner zones,[12]; versus vehicle,decrease
same,behavioral changes / time in the open arms of the maze,[13],neither compound 73 nor compound 101 produced behavioral changes
